Test results as given in patent US9776979B2, “EBI2 modulators” (Sanford-Burnham Medical Research Institute, priority 2013, dated 2017).

biological target: EBI2 (Homo sapiens, UniProt P32249); test: Cell-based luminescent assay (EBI2 modulation); conditions: not given
Outline: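 Cells plated overnight at 37° C, then exposed to compound at 4-5 uM final with 80 nM 7a,25-OHC agonist for 60 min at 37° C. Luminescence read after 60 min detection at 25° C in the dark; values normalized to neutral and stimulator controls and plate-pattern corrected.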

Chain of EBI2 (P32249 whole entry): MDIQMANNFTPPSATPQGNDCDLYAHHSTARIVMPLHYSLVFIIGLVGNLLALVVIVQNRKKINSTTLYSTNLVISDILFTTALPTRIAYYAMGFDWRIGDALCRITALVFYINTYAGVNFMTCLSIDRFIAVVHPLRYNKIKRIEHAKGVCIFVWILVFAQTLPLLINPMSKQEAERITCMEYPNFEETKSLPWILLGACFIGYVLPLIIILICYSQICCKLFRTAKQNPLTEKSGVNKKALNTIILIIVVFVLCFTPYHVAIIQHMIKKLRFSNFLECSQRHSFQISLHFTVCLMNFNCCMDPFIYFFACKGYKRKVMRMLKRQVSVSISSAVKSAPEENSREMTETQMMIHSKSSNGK

Compound | IC50
Cc1cccc(CN2CCN(C(=O)/C=C/c3ccccc3)CC2)c1 [Compound C201, (2E)-1-{4-[(3-methylphenyl)methyl]piperazinyl}-3-phenylprop-2-en-1-one] | < 100 nM
O=C(c1cc2cc(Cl)ccc2[nH]1)N1CCC(Nc2ccc(F)cc2)CC1 [Compound C226, 5-chloroindol-2-yl 4-[(4-fluorophenyl)amino]piperidyl ketone] | < 100 nM

same assay, conditions: cell-based luminescence; 7a,25-OHC final assay concentration 80 nM; 60 minutes incubation; read-out: IC50

Compound | IC50
O=C(O)c1cccc(CN2CCN(C(=O)c3cc4cc(Cl)ccc4[nH]3)CC2)c1 [Compound C188, 3-({4-[(5-chloroindol-2-yl)carbonyl]piperazinyl}methyl)benzoic acid] | 500 to 5000 nM
O=C(c1cc2ccc(F)cc2[nH]1)N1CCN(C(=O)c2ccc(F)cc2C(F)(F)F)CC1 [Compound C189, 6-fluoroindol-2-yl 4-{[4-fluoro-2-(trifluoromethyl)phenyl]carbonyl}piperazinyl ketone] | 500 to 5000 nM
CC(C)(C)c1ccc(S(=O)(=O)N2CCN(C(=O)/C=C/c3ccccc3F)CC2)cc1 [Compound C190, (2E)-1-(4-{[4-(tert-butyl)phenyl]sulfonyl}piperazinyl)-3-(2-fluorophenyl)prop-2-en-1-one] | 500 to 5000 nM
O=C(/C=C/c1ccccc1)N1CCN(Cc2ccccn2)CC1 [Compound C191, (2E)-3-phenyl-1-[4-(2-pyridylmethyl)piperazinyl]prop-2-en-1-one] | 500 to 5000 nM
O=C(/C=C/c1ccc(F)cc1)N1CCCN(C(c2ccccc2)c2ccccc2)CC1 [Compound C192, (2E)-1-[4-(diphenylmethyl)(1,4-diazaperhydroepinyl)]-3-(4-fluorophenyl)prop-2-en-1-one] | 500 to 5000 nM
O=C(c1cc2ncccc2[nH]1)N1CCN(C(c2ccccc2)c2ccccc2)CC1 [Compound C193, 4-(diphenylmethyl)piperazinyl pyrrolo[4,5-b]pyridin-2-yl ketone] | 500 to 5000 nM
O=C(c1ccc(P(=O)(O)O)cc1)N1CCN(C(=O)c2cc3cc(Cl)ccc3[nH]2)CC1 [Compound C194, 5-chloroindol-2-yl 4-[(4-phosphonophenyl)carbonyl]piperazinyl ketone] | 500 to 5000 nM
O=C(C#Cc1cc(F)cc(F)c1)N1CCN(Cc2ccc(C(F)(F)F)cc2)CC1 [Compound C195, 3-(3,5-difluorophenyl)-1-(4-{[4-(trifluoromethyl)phenyl]methyl}piperazinyl)prop-2-yn-1-one] | 500 to 5000 nM
Cc1ccccc1/C=C/C(=O)N1CCN(S(=O)(=O)c2ccccc2)CC1 [Compound C196, (2E)-3-(2-methylphenyl)-1-[4-(phenylsulfonyl)piperazinyl]prop-2-en-1-one] | 500 to 5000 nM
O=C(C#Cc1cc(F)cc(F)c1)N1CCN(Cc2ccc(F)cc2)CC1 [Compound C197, 3-(3,5-difluorophenyl)-1-{4-[(4-fluorophenyl)methyl]piperazinyl}prop-2-yn-1-one] | 500 to 5000 nM
O=C(/C=C/c1ccc(F)cc1)N1CCCN(S(=O)(=O)/C=C/c2ccccc2)CC1 [Compound C198, (2E)-1-{4-[((1E)-2-phenylvinyl)sulfonyl](1,4-diazaperhydroepinyl)}-3-(4-fluorophenyl)prop-2-en-1-one] | 500 to 5000 nM
O=C(c1cc2cc(Cl)ccc2[nH]1)N1CCC(N2CCOCC2)CC1 [Compound C199, 5-chloroindol-2-yl 4-morpholin-4-ylpiperidyl ketone] | 500 to 5000 nM
O=C(c1ccc(C(F)(F)F)c(F)c1)N1CCN(C(=O)c2cc3cc(C(F)(F)F)ccc3[nH]2)CC1 [Compound C200, 4-{[3-fluoro-4-(trifluoromethyl)phenyl]carbonyl}piperazinyl 5-(trifluoromethyl)indol-2-yl ketone] | < 100 nM
CC(C)(C)c1ccc(S(=O)(=O)N2CCN(C(=O)/C=C/c3ccc(F)cc3)CC2)cc1 [Compound C202, (2E)-1-(4-{[4-(tert-butyl)phenyl]sulfonyl}piperazinyl)-3-(4-fluorophenyl)prop-2-en-1-one] | < 100 nM
O=C(/C=C/c1ccccc1)N1CCN(Cc2ccc(Br)cc2)CC1 [Compound C203, (2E)-1-{4-[(4-bromophenyl)methyl]piperazinyl}-3-phenylprop-2-en-1-one] | < 100 nM
O=C(c1ccc(-c2nnn[nH]2)cc1)N1CCN(C(=O)c2cc3cc(Cl)ccc3[nH]2)CC1 [Compound C204, 5-chloroindol-2-yl 4-[(4-(1H-1,2,3,4-tetraazol-5-yl)phenyl)carbonyl]piperazinyl ketone] | < 100 nM
O=C(/C=C/c1ccc(F)cc1)N1CCN(S(=O)(=O)c2ccccc2)CC1 [Compound C205, (2E)-3-(4-fluorophenyl)-1-[4-(phenylsulfonyl)piperazinyl]prop-2-en-1-one] | < 100 nM
O=C(/C=C/c1ccc(F)cc1)N1CCN(S(=O)(=O)c2ccc([N+](=O)[O-])cc2)CC1 [Compound C206, (2E)-3-(4-fluorophenyl)-1-{4-[(4-nitrophenyl)sulfonyl]piperazinyl}prop-2-en-1-one] | < 100 nM
O=C(c1cc2cc(Br)ccc2[nH]1)N1CCN(C(=O)c2ccc(F)cc2C(F)(F)F)CC1 [Compound C208, 5-bromoindol-2-yl 4-{[4-fluoro-2-(trifluoromethyl)phenyl]carbonyl}piperazinyl ketone] | < 100 nM
O=C(/C=C/c1ccc(F)cc1)N1CCN(S(=O)(=O)c2cccc(Br)c2)CC1 [Compound C209, (2E)-1-{4-[(3-bromophenyl)sulfonyl]piperazinyl}-3-(4-fluorophenyl)prop-2-en-1-one] | < 100 nM

Compound | IC50
O=C(/C=C/c1ccc(Cl)c(Cl)c1)N1CCN(Cc2ccc(F)cc2)CC1 [Compound C210, (2E)-3-(3,4-dichlorophenyl)-1-{4-[(4-fluorophenyl)methyl]piperazinyl}prop-2-en-1-one] | < 100 nM
O=C(c1cc2cc(C(F)(F)F)ccc2[nH]1)N1CCN(Cc2ccc(F)cc2)CC1 [Compound C211, 4-[(4-fluorophenyl)methyl]piperazinyl 5-(trifluoromethyl)indol-2-yl ketone] | < 100 nM
O=C(/C=C/c1ccc(F)cc1)N1CCN(S(=O)(=O)c2cccc(F)c2)CC1 [Compound C212, (2E)-3-(4-fluorophenyl)-1-{4-[(3-fluorophenyl)sulfonyl]piperazinyl}prop-2-en-1-one] | < 100 nM
CCOc1ccc(/C=C/C(=O)N2CCN(S(=O)(=O)c3ccc(Br)cc3)CC2)cc1 [Compound C213, (2E)-1-{4-[(4-bromophenyl)sulfonyl]piperazinyl}-3-(4-ethoxyphenyl)prop-2-en-1-one] | < 100 nM
O=C(/C=C/c1ccc(Cl)c(Cl)c1)N1CCN(Cc2ccc(Cl)cc2)CC1 [Compound C214, (2E)-3-(3,4-dichlorophenyl)-1-{4-[(4-chlorophenyl)methyl]piperazinyl}prop-2-en-1-one] | < 100 nM
O=C(c1cc2ccc(F)cc2[nH]1)N1CCN(C(c2ccccc2)c2ccccc2)CC1 [Compound C215, 4-(diphenylmethyl)piperazinyl 6-fluoroindol-2-yl ketone] | < 100 nM
O=C(C=Cc1ccc2c(c1)OCO2)N1CCN(C(=O)c2ccc(F)cc2)CC1 [Compound C216, 3-(2H-benzo[3,4-d]1,3-dioxolen-5-yl)-1-{4-[(4-fluorophenyl)carbonyl]piperazinyl}prop-2-en-1-one] | < 100 nM
O=C(c1cc2cc(-c3ccccc3)ccc2[nH]1)N1CCN(C(c2ccccc2)c2ccccc2)CC1 [Compound C217, 4-(diphenylmethyl)piperazinyl 5-phenylindol-2-yl ketone] | < 100 nM
O=C(/C=C/c1ccc(C(F)(F)F)cc1)N1CCN(C(=O)c2cc3cc(Cl)ccc3[nH]2)CC1 [Compound C218, (2E)-1-{4-[(5-chloroindol-2-yl)carbonyl]piperazinyl}-3-[4-(trifluoromethyl)phenyl]prop-2-en-1-one] | < 100 nM
Cc1ccc2[nH]c(C(=O)N3CCN(Cc4ccc(F)cc4)CC3)cc2c1 [Compound C219, 4-[(4-fluorophenyl)methyl]piperazinyl 5-methylindol-2-yl ketone] | < 100 nM
COc1ccc(-c2ccc3[nH]c(C(=O)N4CCN(C(c5ccccc5)c5ccccc5)CC4)cc3c2)cc1 [Compound C220, 4-(diphenylmethyl)piperazinyl 5-(4-methoxyphenyl)indol-2-yl ketone] | < 100 nM
O=C(/C=C/c1ccc(F)cc1)N1CCN(S(=O)(=O)c2ccc3ccccc3c2)CC1 [Compound C221, (2E)-3-(4-fluorophenyl)-1-[4-(2-naphthylsulfonyl)piperazinyl]prop-2-en-1-one] | < 100 nM
CCN1CCN(C(=O)/C=C/c2ccc(Br)cc2)CC1 [Compound C222, (2E)-3-(4-bromophenyl)-1-(4-ethylpiperazinyl)prop-2-en-1-one] | < 100 nM
Nc1ccc2cc(C(=O)N3CCN(C(c4ccccc4)c4ccccc4)CC3)ccc2c1 [Compound C223, 6-amino(2-naphthyl) 4-(diphenylmethyl)piperazinyl ketone] | < 100 nM
Cc1ccc(C#CC(=O)N2CCN(C(=O)c3ccc(F)cc3C(F)(F)F)CC2)cc1 [Compound C224, 1-(4-{[4-fluoro-2-(trifluoromethyl)phenyl]carbonyl}piperazinyl)-3-(4-methylphenyl)prop-2-yn-1-one] | < 100 nM
O=C(/C=C/c1ccc(F)cc1)N1CCN(S(=O)(=O)c2cc(Cl)ccc2Cl)CC1 [Compound C225, (2E)-1-{4-[(2,5-dichlorophenyl)sulfonyl]piperazinyl}-3-(4-fluorophenyl)prop-2-en-1-one] | < 100 nM
Cc1cc2[nH]c(C(=O)N3CCN(C(c4ccccc4)c4ccccc4)CC3)cc2s1 [Compound C228, 4-(diphenylmethyl)piperazinyl 2-methylthiopheno[2,3-d]pyrrol-5-yl ketone] | < 100 nM
O=C(c1ccccc1)C1CCN(C(=O)c2cc3cc(Cl)ccc3[nH]2)CC1 [Compound C229, 5-chloroindol-2-yl 4-(phenylcarbonyl)piperidyl ketone] | < 100 nM
O=C(/C=C/c1ccc(Cl)c(Cl)c1)N1CCN(S(=O)(=O)c2ccccc2)CC1 [Compound C230, (2E)-3-(3,4-dichlorophenyl)-1-[4-(phenylsulfonyl)piperazinyl]prop-2-en-1-one] | < 100 nM
